{"source": "patent US4727072A", "about": "“3-alkoxy-2-aminopropylamines compositions and use as cardiovascular agents” (McNeilab, Inc., priority 1986, dated 1988)", "key": {"[1]": {"system": "spontaneously hypertensive rats", "test": "Spontaneously Hypertensive Rat (SHR) test, arterial pressure", "format": "in vivo, adult spontaneously hypertensive rats (Charles Rivers)", "settings": "SH rats, fall of mean arterial pressure", "procedure": "The activity of compounds of formula (I) for the treatment of hypertension was determined using the Spontaneously Hypertensive Rat (SHR) test as described below. In this test, the arterial pressure of adult spontaneously hypertensive rats (Charles Rivers) is monitored directly via an aortic cannula. The SH rats are anesthetized with an inhalation anesthetic (ether). The left carotid artery is isolated and cannulated. The tip of the cannula is advanced to the aorta and the cannula is exteriorized behind the neck at the level of the scapula. Animals are placed in individual cages and allowed to recover from the anesthetic and are kept unrestrained. The arterial cannula is connected to the pressure transducer which is attached to the recorder. The test compounds are administered to at least 3 rats at doses selected in the range of 0.1 to 100 mg/kg of body weight by intraperitoneal (i.p.) or oral (p.o.) routes of administration. The arterial pressure and heart rate are monitored for a minimum of 24 hr. A test compound is considered to be active as an antihypertensive agent if the mean arterial pressure (MAP) indicates a fall of >15 mm of Hg. Each animal serves as its own control."}, "[2]": {"system": "coronary arteries (Langendorff's isolated heart)", "test": "Langendorff's isolated heart preparation (dilation of coronary arteries)", "procedure": "In addition to their utility in the treatment of hypertension, the compounds of formula (I) are useful in the treatment of the symptoms of angina pectoris by virtue of their ability to dilate coronary arteries. Their activity was measured using the \"Langendorff's isolated heart\" preparation. This test has been described in \"Pharmacological Experiments on Isolated Preparations\". Staff of the Department of Pharmacology, University of Edinbourgh, 2nd Ed., Churchill Livingstone, N.Y., 1970, pp. 112-119. The test compounds were administered at concentrations of 30.0, 10.0, 3.0, 1.0, 0.3, 0.1, 0.03, and 0.01 micromolar (10^-6 molar)."}, "[3]": {"system": "Mongrel dogs", "test": "Myocardial Oxygen Supply and Demand (dog) Test", "format": "in vivo", "settings": "i.v., anesthetized dog; for increasing coronary blood flow: p<0.05", "procedure": "The activity of compounds of formula (I) in the treatment of angina was also determined using the Myocardial Oxygen Supply and Demand (dog) Test as described below.\nMongrel dogs of either sex weighing between 8.4 and 12.3 kg were used for this study. These dogs were obtained from Haycock Farm, Quakertown, PA. They were anesthetized with pentabarbitol Na and ventilated with a Harvard positive pressure respirator (Model 607 , Dover, MA) to maintain their blood pH and gaseous tension within physiological ranges. Heparin-filled polyethylene catheters were implanted into the right femoral artery (PE-260) and the right atrium (PE-180) for the measurement of their respective pressures. The right femoral vein was cannulated with a heparin-filled polyethylene catheter (PE-200) for drug infusion. A thoracotomy was then performed via the left fifth intercostal space. The left circumflex coronary artery was isolated from surrounding fascia and an electromagnetic flow transducer (I.D.=2.0 mm, Gould Statham Inc. Oxnard, CA) placed around it for the measurement of coronary blood flow. A Delmed intravenous catheter (18.5 ga.×8 in., Canton, MA) was inserted into the coronary sinus via a puncture wound made by an 18 ga. needle for coronary venous effluent blood sampling. Arterial oxygen samples were taken from the femoral arterial catheters. Total content of oxygen in whole blood was measured by the Lex-02-Con-TL (Lexington Instruments Corp., Waltham, MA). Myocardial oxygen consumption was estimated by the product of the difference in arterial and coronary sinus oxygen content and coronary blood flow through the left circumflex coronary artery. These techniques have been used extensively to study the effects of calcium channel blockers on myocardial oxygen supply and demand in various animal models. References for these techniques include Jolly, S. R. and Gross, G. J. Effect of FR 7534, A New Calcium Antagonist, On Myocardial Oxygen Demand. Euro. J. Pharm. 54: 289-293, (1979); Ono, H., Ohara, N. and Hashimoto, K. Effect of an Anti-Anginal Drug, Perhexiline, on Myocardial Oxygen Consumption in Anesthetized Open-Chest Dogs Compared With Verapamil and Glyceryl Trinitrate. Jap. Cir. J. 46: 559-567 (1982); and Vater, W. and Schlossman, K. Effects of Nifedipine on the Hemodynamics and Oxygen Consumption of the Heart in Animal Experiments, in: Jatene and Lichtlen, 3rd International Adalat Symposium: New Therapy of Ischemic Heart Disease (Exerpta Medica, Amsterdam, Oxford), p. 33, (1975). Arterial blood pH and gaseous tension were measured by a Corning pH/blood gas analyzer (Model 168, Medfield, MA). Arterial and atrial pressures were measured by connecting their respective catheters to Statham strain-gauge manometers (P23D, Gould Inc., Oxnard, CA). Gould-Statham electromagnetic blood flowmeters (Model SP2202, Oxnard, CA) were used to measure coronary blood flow. Lead II of the EKG was monitored continuously through subcutaneous insertion of stainless steel needle electrodes on the body surface of the animal. The EKG was recorded by a Grass oscillograph (Model 7D, Quincy, MA) with an EKG-pulse pre-amplifier (Model 7P6C) and a Polygraph D.C. driver amplifier (Model 7DAG). All the other recorded variables, i.e., arterial pressure, right atrial pressure and coronary blood flow were recorded by the Grass oscillograph. Coronary vascular resistance was calculated as the quotient of the difference in mean pressure (arterial-right atrial) and left circumflex blood flow. […]"}}, "note": "Structures can show the parent of a compound that is named as a salt."}
{"compound": "CC1(COCC(CN(Cc2ccccc2)c2c(Cl)cccc2Cl)N2CCCC2)CCCCC1.Cl", "note": "(stereo not drawn) [Example 1e, N-(2,6-Dichlorophenyl)-beta-[[(1-methylcyclohexyl)methoxy]methyl]-N-(phenylmethyl)-1-pyrrolidineethanamine hydrochloride(1:1)]", "values": [{"measurement": "SHR δMAP", "setting": "[1]; dose 30 (mg/kg), po", "result": "-60 mm of Hg"}, {"measurement": "EC30", "setting": "[2]", "result": 4.6, "unit": "nM"}, {"measurement": "decreased arterial pressure", "setting": "[3]; 0.25 mg/kg", "result": 8, "unit": "%"}, {"measurement": "increasing coronary blood flow", "setting": "[3]; 0.25 mg/kg", "result": 80, "unit": "%"}, {"measurement": "decreased arterial pressure", "setting": "[3]; 0.50 mg/kg", "result": 15, "unit": "%"}, {"measurement": "increasing coronary blood flow", "setting": "[3]; 0.50 mg/kg", "result": 221, "unit": "%"}, {"measurement": "myocardial oxygen supply/demand ratio", "setting": "[3]; 0.25 and 0.50 mg/kg", "result": "markedly increased"}]}
{"compound": "COc1cccc(N(Cc2ccccc2)CC(COCC(C)(C)C)N2CCCC2)c1.O=C(O)/C=C/C(=O)O", "note": "(stereo not drawn) [Example 2d, beta-[(2,2-Dimethylpropoxy)methyl]-N-(3-methoxyphenyl)-N-(phenylmethyl)-1-pyrrolidineethanamine (E)-2-Butenedioate (1:1)]", "values": [{"measurement": "SHR δMAP", "setting": "[1]; dose 30 (mg/kg), po", "result": "-29 mm of Hg"}, {"measurement": "EC30", "setting": "[2]", "result": 29, "unit": "nM"}]}
{"compound": "CC(C)(C)COCC(CN(Cc1ccccc1)c1ccccc1Cl)N1CCCC1.Cl", "note": "(stereo not drawn) [Example 3b, N-(2-Chlorophenyl)-beta-[(2,2-dimethylpropoxy)methyl]-N-(phenylmethyl)-1-pyrrolidineethanamine Hydrochloride (1:1)]", "values": [{"measurement": "SHR δMAP", "setting": "[1]; dose 10 (mg/kg), ip", "result": "-52 mm of Hg"}, {"measurement": "SHR δMAP", "setting": "[1]; dose 30 (mg/kg), po", "result": "-6 mm of Hg"}, {"measurement": "EC30", "setting": "[2]", "result": 27, "unit": "nM"}]}
{"compound": "CN(C)c1ccc(CN(CC(COCC(C)(C)C)N2CCCC2)c2c(Cl)cccc2Cl)cc1", "note": "(stereo not drawn) [Example 4c, N-(2,6-Dichlorophenyl)-N-[[4-(dimethylamino)phenyl]methyl]beta-[(2,2-dimethylpropoxy)methyl]-1-pyrrolidineethanamine Hydrochloride Hydrate (7:7:1)]", "values": [{"measurement": "SHR δMAP", "setting": "[1]; dose 10 (mg/kg), ip", "result": "-23 mm of Hg"}, {"measurement": "SHR δMAP", "setting": "[1]; dose 30 (mg/kg), po", "result": "-14 mm of Hg"}, {"measurement": "EC30", "setting": "[2]", "result": 1.6, "unit": "nM"}]}
{"compound": "COc1ccc(CN(CC(COCC(C)(C)C)N2CCCC2)c2c(Cl)cccc2Cl)cc1OC.Cl", "note": "(stereo not drawn) [Example 5, N-(2,6-Dichlorophenyl)-N-[(3,4-dimethoxyphenyl)methyl]-beta-[(2,2-dimethylpropoxy)methyl]-1-pyrrolidineethanamine-Hydrochloride (1:1)]", "values": [{"measurement": "SHR δMAP", "setting": "[1]; dose 30 (mg/kg), po", "result": "-15 mm of Hg"}, {"measurement": "EC30", "setting": "[2]", "result": 1, "unit": "nM"}]}
{"compound": "CC(C)(C)COCC(CN(Cc1ccccc1)c1c(Cl)cccc1Cl)N1CCCC1", "note": "(stereo not drawn) [Example 6, N-(2,6-Dichlorophenyl)-beta-[(2,2-dimethylpropoxy)methyl]-N-(phenylmethyl)-1-pyrrolidineethanamine Hydrochloride (1:1)]", "values": [{"measurement": "SHR δMAP", "setting": "[1]; dose 30 (mg/kg), po", "result": "-33 mm of Hg"}, {"measurement": "EC30", "setting": "[2]", "result": 7.3, "unit": "nM"}]}
{"compound": "CC(C)(C)COCC(CN(Cc1ccncc1)c1c(Cl)cccc1Cl)N1CCCC1.Cl.Cl", "note": "(stereo not drawn) [Example 7, N-(2,6-Dichlorophenyl)-beta-[(2,2-dimethylpropoxy)methyl]-N-(4-pyridinylmethyl)-1-pyrrolidineethanamine Dihydrochloride]", "values": [{"measurement": "SHR δMAP", "setting": "[1]; dose 30 (mg/kg), po", "result": "-37 mm of Hg"}, {"measurement": "EC30", "setting": "[2]", "result": 28, "unit": "nM"}]}
{"compound": "Cc1cccc(C)c1N(Cc1ccccc1)CC(COCC(C)(C)C)N1CCCC1.Cl", "note": "(stereo not drawn) [Example 8b, N-(2,6-Dimethylphenyl)-beta-[(2,2-dimethylpropoxy)methyl]-N-(phenylmethyl)-1-pyrrolidineethanamine Hydrochloride]", "values": [{"measurement": "SHR δMAP", "setting": "[1]; dose 30 (mg/kg), po", "result": "-21 mm of Hg"}, {"measurement": "EC30", "setting": "[2]", "result": 2.8, "unit": "nM"}]}
{"compound": "CC(C)(C)COCC(CN(Cc1ccccc1)c1cccc(C(F)(F)F)c1)N1CCCC1.Cl", "note": "(stereo not drawn) [Example 9b, beta-[(2,2-Dimethylpropoxy)methyl]-N-(phenylmethyl)-N-[3-(trifluoromethyl)phenyl]-1-pyrrolidineethanamine Hydrochloride]", "values": [{"measurement": "SHR δMAP", "setting": "[1]; dose 30 (mg/kg), po", "result": "-28 mm of Hg"}, {"measurement": "EC30", "setting": "[2]", "result": 20, "unit": "nM"}]}
{"compound": "CC(C)(C)COCC(CN(Cc1ccccc1)c1ccccc1)N1CCCC1", "note": "(stereo not drawn) [Example 10, β-[(2,2-Dimethylpropoxy)methyl]-N-phenyl-N-(phenylmethyl)-1-pyrrolidineethanamine (E)-2-Butenedioate (1:1)]", "values": [{"measurement": "SHR δMAP", "setting": "[1]; dose 10 (mg/kg), ip", "result": "-28 mm of Hg"}, {"measurement": "SHR δMAP", "setting": "[1]; dose 30 (mg/kg), po", "result": "-13 mm of Hg"}, {"measurement": "EC30", "setting": "[2]", "result": 5, "unit": "nM"}]}
{"compound": "CC(C)(C)COCC(CN(CC1CCCCC1)c1c(Cl)cccc1Cl)N1CCCC1", "note": "(stereo not drawn) [Example 12, N-(Cyclohexylmethyl)-N-(2,6-dichlorophenyl)-beta-[(2,2-dimethylpropoxy)methyl]-1-pyrrolidineethanamine (E)-2-Butenedioate Hydrate (20:25:2)]", "values": [{"measurement": "SHR δMAP", "setting": "[1]; dose 30 (mg/kg), po", "result": "-25 mm of Hg"}, {"measurement": "EC30", "setting": "[2]", "result": 3, "unit": "nM"}]}
{"compound": "CC(C)(C)OCC(CN(Cc1ccccc1)c1c(Cl)cccc1Cl)N1CCCC1", "note": "(stereo not drawn) [Example 13, N-(2,6-Dichlorophenyl)-beta[ (1,1-dimethylethoxy)methyl]-N-(phenylmethyl)-1-pyrrolidineethanamine Hydrochloride (1:1)]", "values": [{"measurement": "SHR δMAP", "setting": "[1]; dose 10 (mg/kg), ip", "result": "-74 mm of Hg"}, {"measurement": "SHR δMAP", "setting": "[1]; dose 30 (mg/kg), po", "result": "-20 mm of Hg"}, {"measurement": "EC30", "setting": "[2]", "result": 4.3, "unit": "nM"}]}
{"compound": "N-(2,6-Dichlorophenyl)-N-(phenylmethyl)-alpha-[[(tricyclo-[3.3.1.1^3,7]dec-1-yl)methoxy]methyl]-1-pyrrolidineethanamine Hydrochloride (1:1) [Example 11c]", "values": [{"measurement": "SHR δMAP", "setting": "[1]; dose 30 (mg/kg), po", "result": "-41 mm of Hg"}, {"measurement": "Langendorff EC30", "setting": "[2]", "result": ".010 10^-6 M"}]}
